In PubChem BioAssay (NCI):
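Step 1: Grow cells in 96-well plates. Step 2: Expose to compound for 48 hours at 5 concentrations. Step 3: Interpolate endpoints linearly; if unreached, use highest concentration. TGI: concentration producing complete growth inhibition.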

What was measured:
Experiment in all cases: DTP human tumour cell line panel, 48 h
[1] = tested on: 786-0 renal
[2] = tested on: A549 NSCLC
[3] = tested on: ACHN renal
[4] = tested on: CAKI-1 renal
[5] = tested on: CCRF-CEM leukemia
[6] = tested on: COLO 205 colon
[7] = tested on: DLD-1 colon
[8] = tested on: EKVX NSCLC
[9] = tested on: HCC-2998 colon
[10] = tested on: HCT-116 colon
[11] = tested on: HL-60(TB) leukemia
[12] = tested on: HOP-62 NSCLC
[13] = tested on: HOP-92 NSCLC
[14] = tested on: HT29 colon
[15] = tested on: IGROV1 ovarian
[16] = tested on: K-562 leukemia
[17] = tested on: KM20L2 colon
[18] = tested on: LOX IMVI melanoma
[19] = tested on: LXFL 529 NSCLC
[20] = tested on: M14 melanoma
[21] = tested on: M19-MEL melanoma
[22] = tested on: MALME-3M melanoma
[23] = tested on: NCI-H226 lung
[24] = tested on: NCI-H23 lung
[25] = tested on: NCI-H522 lung
[26] = tested on: OVCAR-3 ovarian
[27] = tested on: OVCAR-4 ovarian
[28] = tested on: OVCAR-5 ovarian
[29] = tested on: RPMI-8226 leukemia
[30] = tested on: RXF 393 renal
[31] = tested on: SF-268 CNS
[32] = tested on: SF-295 CNS
[33] = tested on: SF-539 CNS
[34] = tested on: SK-MEL-2 melanoma
[35] = tested on: SK-MEL-28 melanoma
[36] = tested on: SK-OV-3 ovarian
[37] = tested on: SN12C renal
[38] = tested on: SNB-19 CNS
[39] = tested on: SNB-75 CNS
[40] = tested on: SW-620 colon
[41] = tested on: TK-10 renal
[42] = tested on: UACC-257 melanoma
[43] = tested on: UACC-62 melanoma
[44] = tested on: XF 498 CNS
[45] = tested on: A498 renal
[46] = tested on: DMS 114 small cell lung
[47] = tested on: HCT-15 colon
[48] = tested on: HOP-18 NSCLC
[49] = tested on: KM12 colon
[50] = tested on: MOLT-4 leukemia
[51] = tested on: NCI-H460 lung
[52] = tested on: OVCAR-8 ovarian
[53] = tested on: SK-MEL-5 melanoma
[54] = tested on: SNB-78 CNS
[55] = tested on: SR leukemia
[56] = tested on: U251 CNS
[57] = tested on: UO-31 renal
[58] = tested on: DMS 273 small cell lung

CN(C)/N=C(\CCN1CCCC1)CC(c1ccccc1)c1c(O)c2ccccc2oc1=O (stereo not given)
TGI [1]: > 100 µM | TGI [2]: > 100 µM | TGI [3]: > 100 µM | TGI [4]: > 100 µM | TGI [5]: > 100 µM | TGI [6]: > 100 µM | TGI [7]: > 100 µM | TGI [8]: > 100 µM | TGI [9]: > 100 µM | TGI [10]: > 100 µM | TGI [11]: 72.9 µM | TGI [12]: > 100 µM | TGI [13]: > 100 µM | TGI [14]: > 100 µM | TGI [15]: > 100 µM | TGI [16]: > 100 µM | TGI [17]: > 100 µM | TGI [18]: > 100 µM | TGI [19]: > 100 µM | TGI [20]: > 100 µM | TGI [21]: > 100 µM | TGI [22]: > 100 µM | TGI [23]: > 100 µM | TGI [24]: > 100 µM | TGI [25]: > 100 µM | TGI [26]: > 100 µM | TGI [27]: > 100 µM | TGI [28]: > 100 µM | TGI [29]: > 100 µM | TGI [30]: > 100 µM | TGI [31]: > 100 µM | TGI [32]: > 100 µM | TGI [33]: > 100 µM | TGI [34]: > 100 µM | TGI [35]: > 100 µM | TGI [36]: > 100 µM | TGI [37]: > 100 µM | TGI [38]: > 100 µM | TGI [39]: > 100 µM | TGI [40]: > 100 µM | TGI [41]: > 100 µM | TGI [42]: > 100 µM | TGI [43]: > 100 µM | TGI [44]: > 100 µM

O=C(NC1CCCCCC1)C1C(=O)N(C2CCCCCC2)C(=O)/C1=N\O (stereo not given)
TGI [1]: > 100 µM | TGI [45]: 80.4 µM | TGI [2]: > 100 µM | TGI [3]: > 100 µM | TGI [4]: > 100 µM | TGI [5]: 87.2 µM | TGI [6]: 31.2 µM | TGI [7]: > 100 µM | TGI [46]: 84.5 µM | TGI [8]: > 100 µM | TGI [9]: 40.2 µM | TGI [10]: 31.8 µM | TGI [47]: > 100 µM | TGI [11]: 47.8 µM | TGI [48]: > 100 µM | TGI [12]: 36.5 µM | TGI [13]: 46.1 µM | TGI [14]: 94.2 µM | TGI [15]: > 100 µM | TGI [16]: > 100 µM | TGI [49]: > 100 µM | TGI [17]: 49 µM | TGI [18]: > 100 µM | TGI [19]: > 100 µM | TGI [20]: > 100 µM | TGI [21]: 75.6 µM | TGI [22]: 68.5 µM | TGI [50]: 57.3 µM | TGI [23]: > 100 µM | TGI [24]: 93.1 µM | TGI [51]: > 100 µM | TGI [25]: 45 µM | TGI [26]: 37.6 µM | TGI [27]: > 100 µM | TGI [28]: > 100 µM | TGI [52]: > 100 µM | TGI [29]: 83.3 µM | TGI [30]: 48.2 µM | TGI [31]: > 100 µM | TGI [32]: > 100 µM | TGI [33]: 61.3 µM | TGI [34]: 40.3 µM | TGI [35]: 87 µM | TGI [53]: > 100 µM | TGI [36]: > 100 µM | TGI [37]: > 100 µM | TGI [38]: > 100 µM | TGI [39]: 91.9 µM | TGI [54]: > 100 µM | TGI [55]: 54 µM | TGI [40]: > 100 µM | TGI [41]: 94.3 µM | TGI [56]: 34.9 µM | TGI [42]: > 100 µM | TGI [43]: 48.6 µM | TGI [57]: 97.5 µM

CC(=O)NC(CCCN)C(=O)NCc1ccccc1 (stereo not given)
TGI [1]: > 100 µM | TGI [45]: > 100 µM | TGI [2]: > 100 µM | TGI [3]: > 100 µM | TGI [4]: > 100 µM | TGI [5]: > 100 µM | TGI [6]: > 100 µM | TGI [7]: > 100 µM | TGI [46]: > 100 µM | TGI [58]: > 100 µM | TGI [8]: > 100 µM | TGI [9]: > 100 µM | TGI [10]: > 100 µM | TGI [47]: > 100 µM | TGI [12]: > 100 µM | TGI [13]: > 100 µM | TGI [14]: > 100 µM | TGI [15]: > 100 µM | TGI [16]: > 100 µM | TGI [49]: > 100 µM | TGI [17]: > 100 µM | TGI [18]: > 100 µM | TGI [19]: > 100 µM | TGI [20]: > 100 µM | TGI [21]: > 100 µM | TGI [22]: > 100 µM | TGI [50]: > 100 µM | TGI [23]: > 100 µM | TGI [24]: > 100 µM | TGI [51]: > 100 µM | TGI [25]: > 100 µM | TGI [26]: > 100 µM | TGI [27]: > 100 µM | TGI [28]: > 100 µM | TGI [52]: > 100 µM | TGI [29]: > 100 µM | TGI [30]: > 100 µM | TGI [31]: > 100 µM | TGI [32]: > 100 µM | TGI [33]: > 100 µM | TGI [34]: > 100 µM | TGI [35]: > 100 µM | TGI [53]: > 100 µM | TGI [36]: > 100 µM | TGI [37]: > 100 µM | TGI [38]: > 100 µM | TGI [39]: > 100 µM | TGI [54]: > 100 µM | TGI [40]: > 100 µM | TGI [41]: > 100 µM | TGI [56]: > 100 µM | TGI [42]: > 100 µM | TGI [43]: > 100 µM | TGI [57]: > 100 µM | TGI [44]: > 100 µM

CCOC(=O)CC(NC(=O)c1nc[nH]c1[N+](=O)[O-])C(=O)OCC (stereo not given)
TGI [1]: > 100 µM | TGI [45]: > 100 µM | TGI [2]: > 100 µM | TGI [3]: > 100 µM | TGI [4]: > 100 µM | TGI [5]: > 100 µM | TGI [6]: > 100 µM | TGI [7]: > 100 µM | TGI [46]: > 100 µM | TGI [58]: > 100 µM | TGI [8]: > 100 µM | TGI [9]: > 100 µM | TGI [10]: > 100 µM | TGI [47]: > 100 µM | TGI [12]: > 100 µM | TGI [14]: > 100 µM | TGI [15]: > 100 µM | TGI [16]: > 100 µM | TGI [49]: > 100 µM | TGI [18]: > 100 µM | TGI [19]: > 100 µM | TGI [20]: > 100 µM | TGI [21]: > 100 µM | TGI [22]: > 100 µM | TGI [50]: > 100 µM | TGI [23]: 72.5 µM | TGI [24]: 49.8 µM | TGI [51]: > 100 µM | TGI [25]: > 100 µM | TGI [26]: > 100 µM | TGI [27]: > 100 µM | TGI [52]: > 100 µM | TGI [29]: > 100 µM | TGI [31]: > 100 µM | TGI [32]: > 100 µM | TGI [33]: > 100 µM | TGI [34]: > 100 µM | TGI [35]: > 100 µM | TGI [53]: > 100 µM | TGI [36]: > 100 µM | TGI [37]: > 100 µM | TGI [38]: > 100 µM | TGI [39]: > 100 µM | TGI [55]: > 100 µM | TGI [40]: > 100 µM | TGI [41]: 94.1 µM | TGI [56]: 36.9 µM | TGI [42]: > 100 µM | TGI [43]: > 100 µM | TGI [57]: > 100 µM
